Source: patent US6555375B1, “Methods for somatic embryo formation and plant regeneration of Beta vulgaris” (priority 2000, dated 2003)

System: embryogenic tissue masses of sugar beet
Assay: Repetitive embryogenic culture: optimization of proliferation medium
Type: cell-based, Beta vulgaris
Protocol: These embedded tissues were manually isolated, separated and transferred into liquid medium (MS medium+BAP 0.2 mg/L). The cultures were maintained at constant agitation (100 rpm) in the dark with biweekly changes of the medium. […] Clumps of white embryogenic tissue masses were divided and transferred to fresh medium for further proliferation. […] Part of these tissues was used for the optimization of culture medium.
The optimization of proliferation medium was conducted through several stages. Each stage lasted for two weeks.

[1] = II. MSE, sucrose 6%, glutamine 2 mg/L, pH 5.7, phytohormone 0.1 mg/L
[2] = I. MSE, BAP 0.2 mg/L, glutamine 2 mg/L, pH 5.7, carbon source 6%
[3] = III. MSE, sucrose 6%, BAP 0.1 mg/l, pH 5.7, amino acid 2 mg/L
[4] = III. MSE, sucrose 6%, BAP 0.1 mg/l, pH 5.7, amino acid 200 mg/L

C/C(=C\CNc1ncnc2[nH]cnc12)CO [Zea, zeatin]
Effect of media on repetitive embryogenic culture (description) [1]: Slowly growing, mostly meristematic, vitrified tissues

OC[C@@H](O)[C@@H](O)[C@H](O)[C@@H](O)CO [Sorbitol, sorbitol]
Effect of media on repetitive embryogenic culture (description) [2]: No growth, total necrosis

O=C(O)COc1ccc(Cl)cc1Cl [2,4D, 2,4-dichlorophenoxyacetic acid]
colour of vitrified tissues: caused bleaching of vitrified tissues | Effect of media on repetitive embryogenic culture (description) (IV. MSE, sucrose 6%, glycine 2 mg/L, pH 5.7, phytohormone 0.1 mg/L): Pale yellow tissues with white embryos; red pigmentation is repressed | effect on embryo proliferation (presence in the medium): negative effect

c1coc(CNc2ncnc3[nH]cnc23)c1 [Kin, kinetin]
Effect of media on repetitive embryogenic culture (description) [1]: Slowly growing, mostly meristematic, vitrified tissues

OC[C@@H](O)[C@@H](O)[C@H](O)[C@H](O)CO [Mannitol, mannitol]
Effect of media on repetitive embryogenic culture (description) [2]: No growth, total necrosis

OC[C@H]1O[C@@](CO)(O[C@H]2O[C@H](CO)[C@@H](O)[C@H](O)[C@H]2O)[C@@H](O)[C@@H]1O [Sucrose, sucrose]
optimization of proliferation medium by modification of sucrose content: did not lead to any further improvement | Effect of media on repetitive embryogenic culture (description) [2]: A lot of repetitive white embryos | Effect of media on repetitive embryogenic culture (description) (V. MSE, BAP 0.1 mg/L, glycine 2 mg/L, pH 5.7, sucrose at 3%): Necrosis of all tissues | Effect of media on repetitive embryogenic culture (description) (V. MSE, BAP 0.1 mg/L, glycine 2 mg/L, pH 5.7, sucrose at 6%): A lot of repetitive white embryos | Effect of media on repetitive embryogenic culture (description) (V. MSE, BAP 0.1 mg/L, glycine 2 mg/L, pH 5.7, sucrose at 8%): Growth is inhibited | Effect of media on repetitive embryogenic culture (description) (V. MSE, BAP 0.1 mg/L, glycine 2 mg/L, pH 5.7, sucrose at 10%): Growth is inhibited | Effect of media on repetitive embryogenic culture (description) (V. MSE, BAP 0.1 mg/L, glycine 2 mg/L, pH 5.7, sucrose at 12%): Growth is inhibited

NCC(=O)O [Glycine, glycine]
Effect of media on repetitive embryogenic culture (description) [3]: Tissues are light yellow | white embryos, share of tissues [3]: 30% | Effect of media on repetitive embryogenic culture (description) [4]: Slowly growing, mostly meristematic, vitrified tissues

NC(=O)CC[C@H](N)C(=O)O [Glutamine, glutamine]
colour of vitrified tissues: caused bleaching of vitrified tissues | Effect of media on repetitive embryogenic culture (description) [3]: Slowly growing, dark yellow tissues | Effect of media on repetitive embryogenic culture (description) [4]: Slowly growing, dark yellow tissues
